By IC50 is commonly meant the point on the concentration scale where inhibition reaches its midpoint.

Data on nine compounds can be found in PMC7867015, “New Antiproliferative Triflavanone from Thymelaea hirsuta—Isolation, Structure Elucidation and Molecular Docking Studies” (Molecules, 2021).

Type in all cases: cell-based
The nature of series [1]: SRB cytotoxicity assay, Vero normal cells. The following applies: African green monkey, Vero E6 cells (normal cells), read-out: In vitro cytotoxic effect IC50, Vero. Here is the method: (§1) The cell lines used in this study were purchased from the National Cancer Institute, Cairo, Egypt and maintained in Dulbecco’s Modified Eagle Medium/F-12 (DMEM⁄F12, Sigma-Aldrich, USA), supplemented with 2 mM L-glutamine (Lonza, Belgium) and 10% fetal bovine serum (FBS, Sigma-Aldrich, MO, USA), 1% penicillin-streptomycin (Lonza, Belgium). All cells were cultured following routine tissue culture work, and treated with serial concentrations of the compounds for 48 h. Absorbance was subsequently measured (at 570 nm) using ELISA microplate reader (BIO-RAD, model iMark, Japan). The viability was calculated relative to a control and the IC50 values were determined using the non-linear regression curve fit, as previously reported in [44]
(§2) The cytotoxic activities of the isolated compounds against HepG2, VERO E6, MCF-7 and HCT-116 cells were tested using the sulforhodamine-B (SRB) assay and the results are represented in figure e and Table 2.

The test system of a further series is Vero cells. In words: SRB cytotoxicity assay, Vero normal cells. To be noted: 48 h, read-out: In vitro cytotoxic effect IC50, Vero. Here is the method: as §1, §2
In general terms: The SRB assay estimates cell density from bound dye.

Series [2] deals with MCF-7 cells. In words: SRB cytotoxicity assay, MCF-7 cells. The following applies: Homo sapiens, MCF7, 48 h, read-out: IC50 against MCF-7 cells. How it is done:
as §1, §2

Series [3] deals with MCF-7 cells. Put plainly: Annexin V/PI staining, flow cytometry (apoptosis). The following applies: 48 h. Here is the method:
(§3) Apoptosis rate in cells was quantified using annexin V-FITC (BD Pharmingen, San Diego, CA, USA). MCF-7 cells were seeded into 6-well culture plates (3–5 × 10^5 cells/well) and incubated overnight. The cells were then treated with compound 1 for 48 h. Next, media supernatants and cells were collected and rinsed with ice-cold PBS. The next step was suspending the cells in 100 µL of annexin binding buffer solution 25 mM CaCl2, 1.4 M NaCl, and 0.1 M Hepes/NaOH, pH 7.4 and incubation with annexin V-FITC solution (1:100) and propidium iodide (PI) at a concentration of 10 µg/mL in the dark for 30 min. Stained cells were then acquired by a Cytoflex FACS machine. Data were analyzed using cytExpert software v.2.3.
A general note: Flow cytometry measures light scatter and fluorescence of single cells or particles in a stream.

A further series relates to BAX. In words: ELISA assay for apoptotic marker BAX in MCF-7 cells. To be noted: 4.26 μM, 48 h, control 43.6 pg/mL. From the text: (§4) To further investigate the apoptotic pathway of compound 1 in both untreated and treated MCF-7 cells, we investigated the enzymatic assays for apoptotic markers BAX (EIA-4487, DRG International®, Springfield, NJ, USA) and caspase-9 (EIA-4860, DRG International®, USA) as proapoptotic genes and BCL2 (Cat. No. 99-0042, Zymed®, CA, USA) as the anti-apoptotic gene, following the manufacturer’s instructions.
On the technique in general: An ELISA detects its analyte on a solid surface through an enzyme-linked reagent.

Another series deals with BCL2. Put plainly: ELISA assay for anti-apoptotic marker BCL2 in MCF-7 cells. To be noted: 4.26 μM, 48 h, control 7.59 ng/mL.
Description: as §4

In another series the test system is HCT-116 cells. Put plainly: SRB cytotoxicity assay, HCT-116 cells. The following applies: Homo sapiens, 48 h, read-out: IC50 against HCT-116 cells. How it is done: as §1, §2
A short description of series [4]: SRB cytotoxicity assay, HepG2 cells. To be noted: human, read-out: In vitro cytotoxic effect IC50, HepG2. How it is done: as §1, §2
Series [5] deals with MCF-7 cells. In words: DNA content flow cytometry cell cycle analysis. To be noted: 4.26 μM, 48 h. How it is done:
Cell cycle analysis is an important test that determines the percentages of the cell population that are in each cell phase.. In this studyMCF-7 cancer cells were treated with compound 1, and then subjected to DNA flow cytometry to determine the stage where cell proliferation was arrested in the cell cycle.
as §3

The subject of another series is caspase-9. In words: ELISA assay for apoptotic marker caspase-9 in MCF-7 cells. To be noted: 4.26 μM, 48 h, control 5.16 pg/mL.
Description: as §4

Bounds are passed on as bounds.

Consider `O=C1c2c(O)cc(O)cc2OC(c2ccc(O)cc2)C1Oc1ccc(C2Oc3cc(O)cc(O)c3C(=O)C2C2C(=O)c3c(O)cc(O)cc3OC2c2ccc(O)cc2)cc1` (centres unmarked) [Compound 1, 2-(4-((5,7-dihydroxy-2-(4-hydroxyphenyl)-4-oxochroman-3-yl)oxy)phenyl)-5,5′,7,7′-tetrahydroxy-2′-(4 hydroxyphenyl)-[3,3′-bichromane]-4,4′-dione], for which the IC50 at 48 h in series [1] was more than 50 µM; in series [4], 8.6 µM. For the same compound, the IC50 with Vero cells worked out at 56.6 µM; with MCF-7 cells [2], 4.26 µM; with HCT-116 cells, 9.6 µM. Besides, in the series on MCF-7 cells [3] (MCF-7 cells treated at IC50 = 4.26 μM, versus untreated control), the “apoptotic cell death increase” value stood at 14.97 fold. Further, the “Apoptosis Late” value in the series on MCF-7 cells [3] (MCF-7 cells, 4.26 μM, control 0.23%) was found to be 22.52%. Moreover, the “Apoptosis Early” value with MCF-7 cells [3] (MCF-7 cells, 4.26 μM, control 0.61%) stood at 2.44%. Further, the “Apoptosis Total (apoptosis ratio)” value in the series with MCF-7 cells [3] (MCF-7 cells, 4.26 μM, control 2.71%) is 40.57%. The BAX level with BAX was determined as 362 pg/mL. Moreover, the BCL2 level in the series with BCL2 was found to be 2.85 ng/mL. The same compound yielded a Pre-G1 cell population in the series on MCF-7 cells [5] (control 2.71%) of 40.57%. The “change in cell population in G0/G1, S or G2/M phase” value with MCF-7 cells [5] (versus control) is “no significant change”. For the same compound, in the series on caspase-9, the caspase-9 level came to 21.14 pg/mL.
On to `COc1cc2cc(Oc3ccc4ccc(=O)oc4c3)c(=O)oc2cc1OC` [Compound 2, daphnoretin methyl ether], for which the IC50 with MCF-7 cells [2] was 66.1 µM; in the series on HCT-116 cells it was 101 µM. In addition, the IC50 at 48 h in [4] came to 12.3 µM.
As to `COc1cc2oc(=O)c(Oc3ccc4ccc(=O)oc4c3)cc2cc1O` [Compound 3, rutamontine], the IC50 at 48 h in series [1] was more than 142 µM; in series [4], 29.8 µM.
`COc1cc2cc(O)c(=O)oc2cc1Oc1ccc2ccc(=O)oc2c1` [Compound 4, neodaphnoretin]: the IC50 at 48 h in series [1] is 124 µM; in series [4], 27.2 µM.
Take `COc1cc2cc(Oc3ccc4ccc(=O)oc4c3)c(=O)oc2cc1OC(C)=O` [Compound 5, acetyldaphnoretin]: the concentration for half-maximal inhibition (IC50) in the series with MCF-7 cells [2] came to 46.4 µM; in the series with HCT-116 cells it was 24.4 µM. In addition, the IC50 at 48 h in series [4] was found to be 9.4 µM.
`O=c1ccc2ccc(Oc3cc4cc(O)c(O)cc4oc3=O)cc2o1` [Compound 6, edgeworthin]: the IC50 at 48 h was more than 148 µM in series [1] and 32.5 µM in series [4].
`O=C(C=Cc1ccc(O)cc1)OCC1OC(Oc2c(-c3ccc(O)cc3)oc3cc(O)cc(O)c3c2=O)C(O)C(O)C1O` (stereo not drawn) [Compound 8, trans-tiliroside]: the IC50 at 48 h in series [1] amounted to 50.5 µM; in series [4] it was 15.1 µM.
Turning to `O=C(O)c1ccc(O)cc1` [Compound 9, p-hydroxy benzoic acid], the IC50 at 48 h in [1] turned out to be 203 µM; in [4], 32.6 µM.
Consider `COc1cccc2c1C(=O)c1c(O)c3c(c(O)c1C2=O)C[C@@](O)(C(=O)CO)C[C@@H]3O[C@H]1C[C@H](N)[C@H](O)[C@H](C)O1` [Doxo, Doxorubicin, reference compound], for which the IC50 at 48 h amounted to 45.8 µM in [1] and 7.7 µM in series [4].
